# From patent publication US20020137929A1, “1 - (3-heterocyclylphenyl) isothiourea, -isourea, -guanidine and -amidine herbicidal agents” (Intellectual Property Department, BASF Aktiengesellschaft, priority 1998, published 2002)
# What was measured:
# [1] = tested on: ORYSAT (Rice, Tebonnet); test: Preemergence herbicidal evaluation; type: in vivo, Oryza sativa, (L.) Tebonnet; conditions: rated 4-5 weeks after treatment
# Description: (§1) Results of herbicide evaluation are expressed on a rating scale (0-9). The scale is based upon a visual observation of plant stand, vigor, malformation, size, chlorosis and overall plant appearance as compared with a control.
# (§2) The preemergence herbicidal activity of the test compounds of the present invention is exemplified by the following tests in which the seeds of a variety of monocotyledonous and dicotyledonous plants are separately mixed with potting soil and planted on top of approximately one inch of soil in separate pint cups. After planting, the cups are sprayed with the selected aqueous acetone solution containing test compound in sufficient quantity to provide the equivalent of about 0.0156 to 0.500 kg per hectare of test compound per cup. The treated cups are then placed on greenhouse benches, watered and cared for in accordance with conventional greenhouse procedures. From four to five weeks after treatment, the tests are terminated and each cup is examined and rated according to the rating system provided in Example 37.
# (§3) The compounds evaluated are reported by compound number given in Example 37.
# [2] = tested on: ECHORC (Watergrass (Calif.)); test: Preemergence weed control under flooded paddy conditions; type: in vivo, Echinochloa oryzoides; conditions: rated 3-4 weeks after treatment
# Protocol: as §1
# (§4) Preemergence herbicidal activity under flooded paddy conditions is determined as follows: plant seeds or propagating organs are planted in the top 0.5 cm of silt loam soil in 32 oz. plastic containers with a diameter of 10.5 cm and no drainage holes. Water is added to these containers and maintained at 1.5 to 3 cm above the soil surface for the duration of the experiment. The test compounds are applied as aqueous/acetone mixtures 50/50 v/v pipetted directly into the flood water to give the equivalent of about 0.0313 to 0.500 kg/ha of active ingredient. The treated containers are placed on greenhouse benches and cared for in accordance with conventional greenhouse procedures. Three to four weeks after treatment, the test is terminated and each container is examined and herbicidal effect rated according to the rating system provided in Example 37. The compounds evaluated are reported by compound number given in Example 37.
# (§5) Plant species employed in this example are reported by header abbreviation, common name and scientific name.
# [3] = tested on: CYPSE (Flatsedge); test: as above; type: in vivo, Cyperus serotinus; conditions: rated 3-4 weeks after treatment
# How it was run: (§6)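 Seeds or propagules sown in top 0.5 cm of silt loam soil, flooded 1.5 to 3 cm above surface throughout. Compound in 50/50 v/v aqueous/acetone pipetted into flood water at about 0.0313 to 0.500 kg/ha. Visual 0-9 rating versus control after three to four weeks in greenhouse.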
# [4] = tested on: GALAP (Galium); test: Postemergence herbicidal evaluation; type: in vivo, Galium aparine; conditions: postemergence
# Protocol: (§7) In the tests, seedling plants are grown in jiffy flats for about two weeks. The test compounds are dispersed in 50/50 acetone/water mixtures containing 0.5% TWEEN®20, a polyoxyethylene sorbitan monolaurate surfactant of Atlas Chemical Industries, in sufficient quantities to provide the equivalent of about 0.0156 kg to 0.500 kg per hectare of active compound when applied to the plants through a spray nozzle operating at 40 psi for a predetermined time. After spraying, the plants are placed on greenhouse benches and are cared for in accordance with conventional greenhouse procedures. From four to five weeks after treatment, the seedling plants are examined and rated according to the rating system set forth below. Where more than one test is involved for a given compound, the data are averaged.
# (§8) Plant species employed in these evaluations are reported by header abbreviation, common name and scientific name.
# as §1
# [5] = tested on: MOOVA (Monochoria); test: Preemergence weed control under flooded paddy conditions; type: in vivo, Monochoria vaginalis; conditions: rated 3-4 weeks after treatment
# How it was run: as §6
# [6] = tested on: GALAP (Galium); test: Preemergence herbicidal evaluation; type: in vivo, Galium aparine; conditions: rated 4-5 weeks after treatment
# Description: as §1, §2, §3
# [7] = tested on: SETVI (Foxtail, Green); test: Preemergence herbicidal evaluation; type: in vivo, Setaria viridis; conditions: rated 4-5 weeks after treatment
# Description: as §1, §2, §3
# [8] = tested on: SAGPY (Arrowhead (Pygmaea)); test: Preemergence weed control under flooded paddy conditions; type: in vivo, Sagittaria pygmaea; conditions: rated 3-4 weeks after treatment
# Protocol: as §1, §4, §5
# [9] = tested on: CASOB (Sicklepod); test: Postemergence herbicidal evaluation; type: in vivo, Cassia obtusifolia; conditions: postemergence
# Protocol: as §7, §8, §1
# [10] = tested on: AMBEL (Ragweed, Common); test: Postemergence herbicidal evaluation; type: in vivo, Ambrosia artemisifolia; conditions: postemergence
# How it was run: (§9)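 Scores (0–9) reflect plant stand, vigor, malformation, size, chlorosis and general appearance relative to control, read 4 to 5 weeks after treatment and averaged where tests were repeated. Application: about 0.0156–0.500 kg/ha sprayed at 40 psi onto two-week seedlings.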
# [11] = tested on: TRZAWR (Wheat, Winter, cv Riband); test: Postemergence herbicidal evaluation; type: in vivo, Triticum aestivum; conditions: postemergence
# How it was run: as §9
# [12] = tested on: GLXMAW (Soybean, Williams); test: Postemergence herbicidal evaluation; type: in vivo, Glycine max, (L.) Merr. cv Williams; conditions: postemergence
# How it was run: as §9
compound,measurement,setting,value
CC(C)OC(=O)CN1C(=O)CSC1=Nc1cc(-n2c(=O)cc(C(F)(F)F)n(C)c2=O)c(F)cc1Cl [Compound 110],Preemergence herbicidal rating ORYSAT,[1]; rate 0.0156 kg/ha,0.0
same,Preemergence herbicidal rating ORYSAT,[1]; rate 0.0313 kg/ha,0.5
same,Preemergence herbicidal rating ORYSAT,[1]; rate 0.0625 kg/ha,0.5
same,Preemergence herbicidal rating ORYSAT,[1]; rate 0.1250 kg/ha,1.5
same,Preemergence herbicidal rating ORYSAT,[1]; rate 0.2500 kg/ha,5.0
same,Preemergence herbicidal rating ORYSAT,[1]; rate 0.5000 kg/ha,3.0
same,ECHORC herbicidal effect rating,[2]; 0.0313 kg/ha,7.0
same,ECHORC herbicidal effect rating,[2]; 0.0625 kg/ha,7.0
same,ECHORC herbicidal effect rating,[2]; 0.1250 kg/ha,7.0
same,ECHORC herbicidal effect rating,[2]; 0.2500 kg/ha,9.0
same,CYPSE herbicidal effect rating,[3]; 0.0313 kg/ha,0.0
same,CYPSE herbicidal effect rating,[3]; 0.0625 kg/ha,0.0
same,CYPSE herbicidal effect rating,[3]; 0.1250 kg/ha,0.0
same,CYPSE herbicidal effect rating,[3]; 0.2500 kg/ha,0.0
same,Herbicidal rating GALAP,[4]; rate 0.0158 kg/ha,1.0
same,Herbicidal rating GALAP,[4]; rate 0.0315 kg/ha,3.0
same,Herbicidal rating GALAP,[4]; rate 0.0630 kg/ha,4.0
same,MOOVA herbicidal effect rating,[5]; 0.0313 kg/ha,9.0
same,MOOVA herbicidal effect rating,[5]; 0.0625 kg/ha,9.0
same,MOOVA herbicidal effect rating,[5]; 0.1250 kg/ha,9.0
same,MOOVA herbicidal effect rating,[5]; 0.2500 kg/ha,9.0
same,Preemergence herbicidal rating GALAP,[6]; rate 0.0156 kg/ha,0.0
same,Preemergence herbicidal rating GALAP,[6]; rate 0.0313 kg/ha,0.0
same,Preemergence herbicidal rating GALAP,[6]; rate 0.0625 kg/ha,0.0
same,Preemergence herbicidal rating GALAP,[6]; rate 0.1250 kg/ha,0.0
same,Preemergence herbicidal rating GALAP,[6]; rate 0.2500 kg/ha,2.0
same,Preemergence herbicidal rating SETVI,[7]; rate 0.0156 kg/ha,1.5
same,Preemergence herbicidal rating SETVI,[7]; rate 0.0313 kg/ha,2.5
same,Preemergence herbicidal rating SETVI,[7]; rate 0.0625 kg/ha,5.0
same,Preemergence herbicidal rating SETVI,[7]; rate 0.1250 kg/ha,8.0
same,Preemergence herbicidal rating SETVI,[7]; rate 0.2500 kg/ha,9.0
same,Preemergence herbicidal rating SETVI,[7]; rate 0.5000 kg/ha,9.0
same,SAGPY herbicidal effect rating,[8]; 0.0313 kg/ha,6.0
same,SAGPY herbicidal effect rating,[8]; 0.0625 kg/ha,7.0
same,SAGPY herbicidal effect rating,[8]; 0.1250 kg/ha,7.0
same,SAGPY herbicidal effect rating,[8]; 0.2500 kg/ha,8.0
same,Herbicidal rating CASOB,[9]; rate 0.0158 kg/ha,1.0
same,Herbicidal rating CASOB,[9]; rate 0.0315 kg/ha,1.0
same,Herbicidal rating CASOB,[9]; rate 0.0630 kg/ha,1.0
same,Herbicidal rating AMBEL,[10]; rate 0.0158 kg/ha,5.0
same,Herbicidal rating AMBEL,[10]; rate 0.0315 kg/ha,4.0
same,Herbicidal rating AMBEL,[10]; rate 0.0630 kg/ha,9.0
same,Herbicidal rating TRZAWR,[11]; rate 0.0158 kg/ha,2.5
same,Herbicidal rating TRZAWR,[11]; rate 0.0315 kg/ha,3.5
same,Herbicidal rating TRZAWR,[11]; rate 0.0630 kg/ha,4.0
same,Herbicidal rating GLXMAW,[12]; rate 0.0158 kg/ha,5.0
same,Herbicidal rating GLXMAW,[12]; rate 0.0315 kg/ha,6.5
same,Herbicidal rating GLXMAW,[12]; rate 0.0630 kg/ha,6.5
"CCOC(=O)CN1C(=O)C(CC(=O)O)SC1=Nc1cc(N2C(=O)CC(C(F)(F)F)CC2=O)c(F)cc1Cl (stereo not drawn) [Compound 170, 2-{{2-Chloro-5-[2,6-dioxo-4-(trifluoromethyl)-piperidino]-4-fluorophenyl}imino}-4-oxo-3,5-thiazolidinediacetic acid, 3-ethyl ester]",Preemergence herbicidal rating ORYSAT,[1]; 0.0156 kg/ha,0.0
same,Preemergence herbicidal rating ORYSAT,[1]; 0.0313 kg/ha,0.0
same,Preemergence herbicidal rating ORYSAT,[1]; 0.0625 kg/ha,6.0
same,Preemergence herbicidal rating ORYSAT,[1]; 0.1250 kg/ha,7.0
same,Preemergence herbicidal rating ORYSAT,[1]; 0.2500 kg/ha,9.0
same,"herbicidal effect rating, ECHORC",[2]; 0.0313 kg/ha,9.0
same,"herbicidal effect rating, ECHORC",[2]; 0.0625 kg/ha,9.0
same,"herbicidal effect rating, ECHORC",[2]; 0.1250 kg/ha,9.0
same,"herbicidal effect rating, ECHORC",[2]; 0.2500 kg/ha,9.0
same,Herbicidal rating GALAP,[4]; rate 0.0156 kg/ha,0.0
same,Herbicidal rating GALAP,[4]; rate 0.0313 kg/ha,3.0
same,Herbicidal rating GALAP,[4]; rate 0.0625 kg/ha,4.0
same,"herbicidal effect rating, MOOVA",[5]; 0.0313 kg/ha,9.0
same,"herbicidal effect rating, MOOVA",[5]; 0.0625 kg/ha,9.0
same,"herbicidal effect rating, MOOVA",[5]; 0.1250 kg/ha,9.0
same,"herbicidal effect rating, MOOVA",[5]; 0.2500 kg/ha,9.0
same,Preemergence herbicidal rating GALAP,[6]; 0.0156 kg/ha,0.0
same,Preemergence herbicidal rating GALAP,[6]; 0.0313 kg/ha,0.0
same,Preemergence herbicidal rating GALAP,[6]; 0.0625 kg/ha,0.0
same,Preemergence herbicidal rating GALAP,[6]; 0.1250 kg/ha,0.0
same,Preemergence herbicidal rating GALAP,[6]; 0.2500 kg/ha,3.0
same,Preemergence herbicidal rating SETVI,[7]; 0.0156 kg/ha,9.0
same,Preemergence herbicidal rating SETVI,[7]; 0.0313 kg/ha,9.0
same,Preemergence herbicidal rating SETVI,[7]; 0.0625 kg/ha,9.0
same,Preemergence herbicidal rating SETVI,[7]; 0.1250 kg/ha,9.0
same,Preemergence herbicidal rating SETVI,[7]; 0.2500 kg/ha,9.0
same,"herbicidal effect rating, SAGPY",[8]; 0.0313 kg/ha,5.0
same,"herbicidal effect rating, SAGPY",[8]; 0.0625 kg/ha,9.0
same,"herbicidal effect rating, SAGPY",[8]; 0.1250 kg/ha,8.0
same,"herbicidal effect rating, SAGPY",[8]; 0.2500 kg/ha,9.0
same,Herbicidal rating CASOB,[9]; rate 0.0156 kg/ha,0.0
same,Herbicidal rating CASOB,[9]; rate 0.0313 kg/ha,0.0
same,Herbicidal rating CASOB,[9]; rate 0.0625 kg/ha,1.0
same,Herbicidal rating AMBEL,[10]; rate 0.0156 kg/ha,9.0
same,Herbicidal rating AMBEL,[10]; rate 0.0313 kg/ha,9.0
same,Herbicidal rating AMBEL,[10]; rate 0.0625 kg/ha,9.0
same,Herbicidal rating TRZAWR,[11]; rate 0.0156 kg/ha,3.5
same,Herbicidal rating TRZAWR,[11]; rate 0.0313 kg/ha,4.0
same,Herbicidal rating TRZAWR,[11]; rate 0.0625 kg/ha,5.0
same,Herbicidal rating GLXMAW,[12]; rate 0.0156 kg/ha,7.5
same,Herbicidal rating GLXMAW,[12]; rate 0.0313 kg/ha,7.5
same,Herbicidal rating GLXMAW,[12]; rate 0.0625 kg/ha,7.5
